Experimental data reported in patent publication US11406720B2, “Fibroblast growth factor receptor 2-specific peptide reagents and methods” (THE REGENTS OF THE UNIVERSITY OF MICHIGAN, priority 2017, dated 2022).
“Also recorded” adds a separate entry of the source. Where no end group is shown, it is not given here.

Key:
[1] = target: T1, QhTERT cells that express FGFR2c (Homo sapiens, UniProt P21802); assay: Competition for reagent binding with unlabeled peptide (confocal microscopy); details: unlabeled peptide 50 μM and greater (up to 500 μM) vs 0 μM; 5 μM SRR*-Cy5.5; 4° C
T1 construct: expressed in transfected cells; host or cells: QhTERT (human non-dysplastic Barrett's esophagus cells immortalized with hTert)
Experimental: We administered unlabeled SRR*, and used confocal microscopy to observe competition for binding of SRR*-Cy5.5 to QhTERT cells that express FGFR2c, FIG. 3A-L. Approximately 10^3 cells were grown to ˜70% confluence on cover glass in triplicate. Unlabeled peptides at concentrations of 0, 50, 100, 150, 250, and 500 μM were incubated with the cells for 30 min at 4° C. The cells were washed and incubated with 5 μM of the target peptide for another 30 min at 4° C. The cells were washed and fixed with 4% PFA for 5 min. The cells were washed with PBS and mounted with ProLong Gold reagent containing DAPI (Invitrogen).

[2] = target: T1, QhTERT cells that express FGFR2c; assay: Apparent association time constant by flow cytometry; assay type: binding; details: for apparent association time constant k: 5 μM, RT, 0 to 30 min; for time scale for onset of binding: from k
Experimental: We measured the apparent association time constant of the peptide reagent to QhTERT/FGFR2c cells to assess binding onset.^46 Cells were grown to ˜80% confluence in 10 cm dishes, and detached with PBS-based cell dissociation buffer (Invitrogen). Cells (˜10^5) were incubated with 5 μM SRR-Cy5.5 at RT for various time intervals ranging from 0 to 30 min. The cells were centrifuged, and washed with cold PBS. Flow cytometry analysis was performed as described above, and the median fluorescence intensity (y) were measured on flow cytometry at different time points (t) using Flowjo software. The rate constant k was calculated by fitting the data to a first order kinetics model, y(t)=Imax[1−exp^(−kt)], where Imax=maximum value using Prism 5.0 software (GraphPad Inc).

[3] = test system: phosphorylation of FGFR2 (p-FGFR), AKT (p-AKT) and ERK (p-ERK) in QhTERT cells that express FGFR2b; assay: Effect on cell signaling, Western blot, FGFR2b cells; assay type: cell-based, human; details: peptide 5 or 100 μM, FGF1 100 ng/mL, 20 min, vs untreated cells
Experimental: (§1) QhTERT cells that overexpress either FGFR2b or FGFR2c were seeded in 12-well flat-bottom plates with 500 μL of serum-free medium for 16 hours. FGF1 (#2232-FA-025, R&D systems) was reconstituted to a concentration of 100 μg/mL using PBS, diluted with 0.1% bovine serum albumin, and added to the cells at final concentrations of 100 ng/mL for 20 min in separate wells. Heparin (#H3149-10KU, Sigma) with final concentration of 100 unit/mL was also added to increase stability. In addition, peptides at concentrations of 5 and 100 μM were incubated for 20 min in separate wells. The cells were washed with PBS and lysed in RIPA buffer containing protease inhibitors (#11836170001, Roche, Basel, Switzerland). Lysates were separated by gel electrophoresis, transferred to polyvinylidene difluoride membranes (#ISEQ00010, Millipore), and detected by immunoblotting using an enhanced chemiluminescence system (#RPN2106, GE Healthcare). Anti-FGFR2 antibody (#SC 122, Santa Cruz Biotechnology), anti-phospho-FGFR (#3471, Cell Signaling Technology), anti-AKT (#4691P, Cell Signaling Technology), anti-ERK1/2 (#4695P, Cell Signaling Technology), anti-phospho-AKT (pS473; #4060P, Cell Signaling Technology), anti-phospho-ERK1/2 (#4370P, Cell Signaling Technology), and anti-tubulin (#32-2600, Invitrogen) were used as per manufacturer's instructions.

[4] = test system: phosphorylation of FGFR2 (p-FGFR), AKT (p-AKT) and ERK (p-ERK) in QhTERT cells that express FGFR2c; assay: Effect on cell signaling, Western blot, FGFR2c cells; assay type: cell-based, human; details: peptide 5 or 100 μM, FGF1 100 ng/mL, 20 min, vs untreated cells
Experimental: as §1

[5] = target: T2, QhTERT cells that express FGFR2b (Homo sapiens, UniProt P21802); assay: Confocal fluorescence microscopy, binding to QhTERT cells expressing FGFR2b
T2 construct: expressed in transfected cells; host or cells: QhTERT (human non-dysplastic Barrett's esophagus cells immortalized with hTert)
Excerpt: (§2) All human esophagus specimens were obtained with written, informed patient consent per approval and guidelines of the University of Michigan Institutional Review Board (IRB). Human non-dysplastic Barrett's esophagus (BE) cells immortalized with hTert (QhTERT) were obtained from the American Type Culture Collection (ATCC) and cultured in keratinocyte-serum free medium containing bovine pituitary extract and human recombinant EGF (ThermoFisher #17005042). QhTERT cells with stable expression of FGFR2b or FGFR2c were provided by DGB. We cultured these cells with keratinocyte-serum free medium containing bovine pituitary extract and human recombinant EGF (ThermoFisher #17005042) and added 1 μg/mL of puromycin-dihydrochloride (Invitrogen #A11138-03). All cells were cultured at 37° C. in 5% CO2, and were passaged using 0.25% EDTA containing trypsin (Mediatech Inc). A hemocytometer was used to count the cell number. Peptide synthesis reagents were obtained from either Anaspec or AAPPTEC with the highest grade available (>99% purity) and used without further purification. Solvents and other chemical reagents were obtained from Sigma-Aldrich, unless otherwise stated.
(§3) On confocal microscopy, we validated specific peptide reagent binding to human BE cells that express FGFR2.

[6] = target: T1, QhTERT cells that express FGFR2c; assay: Confocal fluorescence microscopy, binding to QhTERT cells expressing FGFR2c
Excerpt: as §2, §3

[7] = test system: QhTERT cells wild type; assay: Confocal fluorescence microscopy, binding to wild-type QhTERT cells; parameters: species or system human
Excerpt: as §2, §3

[8] = target: T1, QhTERT cells that express FGFR2c; assay: Apparent dissociation constant by flow cytometry; assay type: binding; details: 0 to 200 nM, 4° C, 1 hour
Experimental: We measured the apparent dissociation constant kd for peptide reagent binding to cells to assess binding affinity.^45 The Cy5.5-labeled peptide reagent was serially diluted in PBS at concentrations ranging from 0 to 200 nM in 25 nM increments. QhTERT/FGFR2c cells (˜10^5) were incubated with peptide at 4° C. for 1 hour, washed with cold PBS, and the mean fluorescence intensities were measured using flow cytometry. The equilibrium dissociation constant kd=1/ka was calculated by performing a least squares fit of the data to the non-linear equation I=(I0+Imaxka[X])/([…]). I0 and Imax are the initial and maximum fluorescence intensities, corresponding to no peptide and at saturation, respectively, and [X] represents the concentration of the bound peptide reagent. Prism 5.0 software (GraphPad Inc) was used to calculate kd.

[9] = test system: human esophageal specimens (SQ, BE, HGD, EAC); assay: Confocal microscopy staining of sections of human esophagus ex vivo; assay type: binding
Experimental: Formalin-fixed sections of human esophageal specimens were deparaffinized, and antigen retrieval was performed using standard methods. Briefly, the sections were incubated in xylene for 3 min 3×, washed with 100% ethanol for 2 min 2×, and washed with 95% ethanol for 2 min 2×. Rehydration was performed by washing in dH2O for 5 min 2×. Antigen unmasking was performed by boiling the slides in 10 mM sodium citrate buffer with 0.05% Tween at pH 6.0, and then maintaining at sub-boiling temperature for 15 min. The slides were cooled for 30 min, and the sections were washed in dH2O for 3 min 3× and in PBS for 5 min. Blocking was performed with DAKO protein blocking agent (X0909, DAKO) for 1 hour at RT. The peptides were incubated at a concentration of 1 μM for 10 min at RT. The sections were washed in PBS for 3 min 3×, and incubated with 1:1000 dilution of monoclonal anti-FGFR2 (Abcam, ab58201) overnight at 4° C.
The sections were then washed in PBS for 5 min 3×. A 1:500 dilution of AF488-labeled secondary antibody (goat anti-mouse) was added to each section and incubated for 30 min at RT. The secondary antibody solution was removed by washing with PBS for 5 min 3×. The sections were then mounted with ProLong Gold reagent containing DAPI (Invitrogen). The mean fluorescence intensities from 3 boxes (dimensions of […]) located completely within the surface epithelium of each specimen were measured. […] Serial sections were processed for routine histology (H&E), and were reviewed by an expert gastrointestinal pathologist (HDA).

[10] = test system: sections of human esophageal squamous cell cancer (SCC); assay: Confocal microscopy staining of human esophageal squamous cell carcinoma sections ex vivo; assay type: binding
Excerpt: We observed good co-localization of peptide reagent and antibody binding on merged images, FIG. 10C. Representative histology (H&E) for SCC is shown, FIG. 10D.

[11] = test system: sections of human gastric cancer; assay: Confocal microscopy staining of human gastric cancer sections ex vivo; assay type: binding
Excerpt: We observed good co-localization of peptide and antibody binding on merged images, FIG. 11C. Representative histology (H&E) for gastric cancer is shown, FIG. S6D.

T1 sequence (P21802 22-821): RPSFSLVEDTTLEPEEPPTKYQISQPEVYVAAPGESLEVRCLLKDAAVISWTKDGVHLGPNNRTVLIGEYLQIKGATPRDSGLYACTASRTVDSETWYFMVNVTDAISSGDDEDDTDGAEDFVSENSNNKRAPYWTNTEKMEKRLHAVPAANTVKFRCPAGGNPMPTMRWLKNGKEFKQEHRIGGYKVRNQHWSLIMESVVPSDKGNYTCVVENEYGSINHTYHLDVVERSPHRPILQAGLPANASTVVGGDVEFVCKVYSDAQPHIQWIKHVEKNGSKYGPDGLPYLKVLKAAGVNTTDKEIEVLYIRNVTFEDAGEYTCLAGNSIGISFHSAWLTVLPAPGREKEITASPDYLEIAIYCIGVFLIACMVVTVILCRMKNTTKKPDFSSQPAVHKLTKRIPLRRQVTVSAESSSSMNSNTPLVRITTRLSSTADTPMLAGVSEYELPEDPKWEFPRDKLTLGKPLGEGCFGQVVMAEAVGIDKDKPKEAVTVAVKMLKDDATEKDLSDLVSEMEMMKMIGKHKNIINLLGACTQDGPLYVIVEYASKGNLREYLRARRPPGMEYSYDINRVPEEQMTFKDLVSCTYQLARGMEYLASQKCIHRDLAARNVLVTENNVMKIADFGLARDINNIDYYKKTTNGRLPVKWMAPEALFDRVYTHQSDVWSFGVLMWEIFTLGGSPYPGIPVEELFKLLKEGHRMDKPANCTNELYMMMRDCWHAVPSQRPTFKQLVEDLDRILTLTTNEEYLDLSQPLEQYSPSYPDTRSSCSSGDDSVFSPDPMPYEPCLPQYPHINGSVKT
T2 sequence (P21802 22-822 isoform P21802-3 limits assumed): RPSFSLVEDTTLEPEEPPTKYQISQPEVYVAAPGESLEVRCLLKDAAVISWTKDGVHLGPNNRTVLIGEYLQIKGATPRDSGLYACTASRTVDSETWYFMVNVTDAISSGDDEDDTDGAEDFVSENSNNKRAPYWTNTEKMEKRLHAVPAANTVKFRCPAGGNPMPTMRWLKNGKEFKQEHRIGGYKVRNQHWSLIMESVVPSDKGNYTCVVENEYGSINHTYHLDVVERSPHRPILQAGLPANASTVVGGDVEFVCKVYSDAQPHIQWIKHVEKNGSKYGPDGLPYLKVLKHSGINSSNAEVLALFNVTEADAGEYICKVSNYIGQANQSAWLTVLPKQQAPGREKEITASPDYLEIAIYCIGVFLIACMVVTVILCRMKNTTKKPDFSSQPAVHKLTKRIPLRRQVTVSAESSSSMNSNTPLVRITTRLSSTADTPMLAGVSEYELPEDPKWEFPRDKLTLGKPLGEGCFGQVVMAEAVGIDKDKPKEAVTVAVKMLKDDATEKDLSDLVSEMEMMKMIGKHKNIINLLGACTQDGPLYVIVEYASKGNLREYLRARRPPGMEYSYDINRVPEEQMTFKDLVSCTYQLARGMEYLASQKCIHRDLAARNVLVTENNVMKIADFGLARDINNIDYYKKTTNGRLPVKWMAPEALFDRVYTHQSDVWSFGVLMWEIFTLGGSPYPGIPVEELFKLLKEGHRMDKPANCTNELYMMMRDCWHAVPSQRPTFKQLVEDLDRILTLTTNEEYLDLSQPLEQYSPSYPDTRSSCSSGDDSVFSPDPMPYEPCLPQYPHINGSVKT

Row | Compound | change in binding (mean fluorescence intensity) of SRR*-Cy5.5 on addition of unlabeled peptide [1] | apparent association time constant k [2] [min⁻¹] | time scale for onset of binding [2] [min] | phosphorylation of FGFR2 (p-FGFR), AKT (p-AKT) and ERK (p-ERK) [3] | phosphorylation of FGFR2 (p-FGFR), AKT (p-AKT) and ERK (p-ERK) [4] | binding signal on cell surface (confocal microscopy) [5] | binding signal on cell surface (confocal microscopy) [6] | binding signal on cell surface (confocal microscopy) [7] | other results
1 | C[C@H](NC(=O)[C@@H](NC(=O)[C@H](CCCNC(=N)N)NC(=O)[C@H](Cc1ccccc1)NC(=O)[C@H](CO)NC(=O)[C@H](C)NC(=O)[C@@H]1CCCN1C(=O)[C@H](CCCNC(=N)N)NC(=O)[C@H](CCCNC(=N)N)NC(=O)[C@@H](N)CO)[C@@H](C)O)C(=O)N[C@@H](CCCNC(=N)N)C(=O)N[C@@H](CCC(=O)O)C(N)=O (relative stereo) [SRR*, SRRPASFRTARE] | significant reduction; also recorded: significant decrease | 0.16 | 6.2 | no obvious change | no obvious change | – | – | – | –
2 | FGF1: FGF1 (#2232-FA-025, R&D systems), positive control that binds FGFR2b and FGFR2c [reference compound] | – | – | – | to some extent; also recorded: shows phosphorylation activity | strong phosphorylation activity; also recorded: shows phosphorylation activity | – | – | – | –
3 | SPS*-Cy5.5: scrambled sequence SPSRERTFRARA for control, labeled with Cy5.5 via a GGGSK linker (SPSRERTFRARAGGGS-{K(Cy5.5)-NH2}) [reference compound] | – | – | – | – | – | Minimal binding; also recorded: Minimal signal | Minimal binding; also recorded: Minimal signal | Minimal binding; also recorded: Minimal signal | –
4 | SPSRERTFRARA [SPS*, unlabeled scrambled peptide used for control, reference compound] | No significant difference; also recorded: Non-significant differences | – | – | – | – | – | – | – | –
5 | SRR*-Cy5.5: 12 amino acid sequence SRRPASFRTARE with fluorophore Cy5.5 attached via a GGGSK linker on the C-terminus (not fully specified (C-terminus)) | – | 0.16 | ~6.2 | – | – | strong signal; also recorded: strong binding | strong signal; also recorded: strong binding | minimal signal | mean fluorescence intensity versus control SPS*-Cy5.5 ([5]; compared with wild-type): significantly greater; mean fluorescence intensity versus control SPS*-Cy5.5 ([6]; compared with wild-type): significantly greater; Kd [8]: 68 nM; mean target-to-background (T/B) ratio for HGD and EAC versus BE and SQ ([9]; 3 boxes of 30×30 μm^2): significantly higher; staining (fluorescence intensity) of section ([9]; Barrett's esophagus (BE)): minimal fluorescence intensity; also recorded: minimal staining; staining (fluorescence intensity) of section ([9]; esophageal adenocarcinoma (EAC)): strong signal; also recorded: strong binding; staining (fluorescence intensity) of section ([9]; high-grade dysplasia (HGD)): strong signal; also recorded: strong binding; mean fluorescence intensity from HGD and EAC compared with BE ([9]; n=28, 33, 22, 17 specimens of SQ, BE, HGD, EAC): significantly greater; staining (fluorescence intensity) of section ([9]; squamous (SQ)): minimal fluorescence intensity; also recorded: minimal staining; staining (fluorescence intensity) of section ([10]; human esophageal SCC): strong fluorescence intensity; also recorded: strong binding; staining (fluorescence intensity) of section ([10]; normal human esophagus): minimal fluorescence intensity; also recorded: minimal staining; mean fluorescence intensity from SCC versus normal ([10]; paired, two-sided t-test): significantly greater; staining (fluorescence intensity) of section ([11]; human gastric cancer): strong fluorescence intensity; also recorded: strong binding; staining (fluorescence intensity) of section ([11]; normal human stomach): minimal fluorescence intensity; also recorded: minimal staining; mean fluorescence intensity from gastric cancer versus normal ([11]; paired, two-sided t-test): significantly greater
